Measured values as given in ChEMBL document CHEMBL1133772, “In vitro and in vivo evaluation of dihydropyrimidinone C-5 amides as potent and selective alpha(1A) receptor antagonists for the treatment of benign prostatic hyperplasia” (J Med Chem, 2000).

What was measured:
[1] = Bioavailability in rat; format: ADME, organism-based; details: in vivo
[2] = molecular target: T1, Alpha-1D adrenergic receptor (Homo sapiens, UniProt P25100); assay: Evaluated for the ability to displace [125I]- HEAT from human cloned Alpha-1D adrenergic receptor stably expressed in HEK cells.; format: cell-based, HEK293
T1 sequence (P25100 whole entry): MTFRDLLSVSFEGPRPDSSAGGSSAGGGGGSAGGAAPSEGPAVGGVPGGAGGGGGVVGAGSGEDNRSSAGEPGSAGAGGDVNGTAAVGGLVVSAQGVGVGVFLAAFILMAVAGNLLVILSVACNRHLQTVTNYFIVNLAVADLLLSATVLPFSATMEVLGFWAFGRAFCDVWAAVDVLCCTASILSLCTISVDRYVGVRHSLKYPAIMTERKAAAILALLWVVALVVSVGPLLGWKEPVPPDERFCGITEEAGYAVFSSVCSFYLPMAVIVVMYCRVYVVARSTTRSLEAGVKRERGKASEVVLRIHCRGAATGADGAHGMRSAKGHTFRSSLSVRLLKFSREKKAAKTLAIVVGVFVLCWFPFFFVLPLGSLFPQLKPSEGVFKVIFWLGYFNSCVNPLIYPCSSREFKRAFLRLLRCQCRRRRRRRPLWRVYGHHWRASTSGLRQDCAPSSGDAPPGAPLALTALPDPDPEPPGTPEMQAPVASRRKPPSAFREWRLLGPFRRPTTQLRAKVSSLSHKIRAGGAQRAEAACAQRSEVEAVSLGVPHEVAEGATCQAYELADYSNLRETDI

[3] = molecular target: T2, Alpha-1A adrenergic receptor (Homo sapiens, UniProt P35348); assay: Evaluated for the ability to displace [125I]- HEAT from human cloned Alpha-1A adrenergic receptor stably expressed in CHO cells.; format: cell-based
T2 sequence (P35348 whole entry): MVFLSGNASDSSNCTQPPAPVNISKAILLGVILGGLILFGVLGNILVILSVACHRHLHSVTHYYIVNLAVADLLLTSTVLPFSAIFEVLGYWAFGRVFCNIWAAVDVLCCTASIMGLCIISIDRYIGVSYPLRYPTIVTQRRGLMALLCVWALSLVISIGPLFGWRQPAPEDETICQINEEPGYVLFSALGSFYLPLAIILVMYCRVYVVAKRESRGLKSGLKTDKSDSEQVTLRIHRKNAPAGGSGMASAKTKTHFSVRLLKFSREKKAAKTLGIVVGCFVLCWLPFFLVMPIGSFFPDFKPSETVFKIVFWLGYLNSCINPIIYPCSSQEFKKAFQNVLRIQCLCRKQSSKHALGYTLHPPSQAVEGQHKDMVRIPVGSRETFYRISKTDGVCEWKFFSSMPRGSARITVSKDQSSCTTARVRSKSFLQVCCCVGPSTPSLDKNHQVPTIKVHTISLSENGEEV

[4] = molecular target: T3, Alpha-1B adrenergic receptor (Homo sapiens, UniProt P35368); assay: Evaluated for the ability to displace [125I]- HEAT from human cloned Alpha-1B adrenergic receptor stably expressed in LM cells.; format: cell-based
T3 sequence (P35368 whole entry): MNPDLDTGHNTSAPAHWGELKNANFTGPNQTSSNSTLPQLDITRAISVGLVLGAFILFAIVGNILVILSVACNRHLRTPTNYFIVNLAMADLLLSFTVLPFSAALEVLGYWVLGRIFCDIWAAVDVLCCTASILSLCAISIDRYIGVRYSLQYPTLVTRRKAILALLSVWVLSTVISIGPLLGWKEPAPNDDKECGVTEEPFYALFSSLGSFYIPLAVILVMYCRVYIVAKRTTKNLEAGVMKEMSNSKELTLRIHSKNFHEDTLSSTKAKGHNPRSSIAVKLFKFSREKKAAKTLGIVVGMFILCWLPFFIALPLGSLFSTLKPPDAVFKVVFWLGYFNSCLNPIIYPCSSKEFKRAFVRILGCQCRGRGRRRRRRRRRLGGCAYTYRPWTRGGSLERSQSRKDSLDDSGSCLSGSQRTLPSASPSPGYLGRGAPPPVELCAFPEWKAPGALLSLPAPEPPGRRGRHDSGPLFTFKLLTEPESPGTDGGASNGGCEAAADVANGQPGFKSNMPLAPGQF

Canis familiaris [5] = species: Canis familiaris; assay: Compound was evaluated for the inhibition of phenylephrine-induced contraction in dog.; format: functional, Canis lupus familiaris
Canis familiaris [6] = species: Canis familiaris; assay: Dose effecting a 20 mmHg change in diastolic blood pressure in dog.; format: functional, Canis lupus familiaris, Artery
Rattus norvegicus [7] = species: Rattus norvegicus; assay: Evaluated for the inhibition of A61603-induced prostate contraction in rat; format: functional, Prostate gland
Rattus norvegicus [8] = species: Rattus norvegicus; assay: Duration of action with repeated challenges of A61603 agonist in rat; format: functional; note: test concentration or dose not given here
[9] = t1/2 in rat; format: ADME, organism-based; details: in vivo
[10] = molecular target: T1, Alpha-1D adrenergic receptor; assay: Ability to displace [125I]- HEAT from human cloned Alpha-1D adrenergic receptor stably expressed in HEK cells.; format: cell-based, HEK293
[11] = molecular target: T3, Alpha-1B adrenergic receptor; assay: Ability to displace [125I]- HEAT from human cloned Alpha-1B adrenergic receptor stably expressed in LM cells.; format: cell-based
[12] = molecular target: T2, Alpha-1A adrenergic receptor; assay: Ability to displace [125I]- HEAT from human cloned Alpha-1A adrenergic receptor stably expressed in CHO cells.; format: cell-based

| SMILES | bioavailability [1] [%] | Ki [2] [nM] | Ki [3] [nM] | Ki [4] [nM] | AD50 (Canis familiaris [5]) [µg/kg] | DBP-20 (Canis familiaris [6]) [µg/kg] | AD50 (Rattus norvegicus [7]) [µg/kg] | Duration (Rattus norvegicus [8]) [h] | half-life [9] [h] | Ki [10] [nM] | Ki [11] [nM] | Ki [12] [nM] |
| --- | --- | --- | --- | --- | --- | --- | --- | --- | --- | --- | --- | --- |
| O=C1NC=C(C(=O)NCCCN2CCC(c3ccc(F)cc3)CC2)[C@@H](c2ccc(F)c(F)c2)N1 | 0 | 68 | 0.17 | 24 | 21 | >300 | 2.2 | 0.5 | 1 | – | – | – |
| CN1C=C(C(=O)NCCCN2CCC(C#N)(c3ccc(F)cc3)CC2)[C@H](c2ccc(F)c(F)c2)NC1=O | 8 | – | – | – | – | – | 145 | – | 1.2 | 710 | 320 | 2.3 |
| CC1=C(C(=O)NCCCN2CCC(c3ccc(F)cc3)CC2)[C@@H](c2ccc(F)c(F)c2)NC(=O)N1C | < 6 | – | – | – | – | – | 20 | 2.5 | 1.2 | 590 | 120 | 0.18 |
| O=C1NC=C(C(=O)NCCCN2CCC(c3ccccn3)CC2)[C@@H](c2ccc(F)c(F)c2)N1 | – | > 3000 | 2.5 | 1850 | – | – | – | – | – | – | – | – |
| O=C1NC=C(C(=O)NCCCN2CCC(O)(c3ccc(F)cc3)CC2)[C@@H](c2ccc(F)c(F)c2)N1 | 0 | 880 | 0.91 | 160 | – | – | 1.2 | 0.5 | 0.617 | – | – | – |
| CN1C=C(C(=O)NCCCN2CCC(C#N)(c3ccc(F)cc3)CC2)[C@@H](c2ccc(F)c(F)c2)NC1=O | < 6 | – | – | – | – | – | 14 | 4 | 1.1 | 240 | 53 | 0.12 |
| CC1=C(C(=O)NCCCN2CCC(C#N)(c3ccc(F)cc3C#N)CC2)[C@@H](c2ccc(F)c(F)c2)NC(=O)N1C | 0 | > 4000 | 0.6 | > 2000 | – | – | 5 | 1 | 0.4 | – | – | – |
| N#Cc1ccccc1C1(C#N)CCN(CCCNC(=O)C2=CNC(=O)N[C@@H]2c2ccc(F)c(F)c2)CC1 | 0 | 2400 | 0.16 | 970 | – | – | 3 | 1 | 0.75 | – | – | – |
| CC1=C(C(=O)NCCCN2CCC(c3ccc(F)cc3)CC2)[C@H](c2ccc(F)c(F)c2)NC(=O)N1C | – | – | 20 | 110 | – | – | – | – | – | 600 | – | – |
| CN1C=C(C(=O)NCCCN2CCC(C#N)(c3ccc(F)cc3C#N)CC2)[C@@H](c2ccc(F)c(F)c2)N(C)C1=O | < 6 | 250 | 0.3 | 72 | – | – | 13 | 3 | 0.25 | – | – | – |
| CC1=C(C(=O)NCCCN2CCC(c3ccccn3)CC2)[C@@H](c2ccc(F)c(F)c2)NC(=O)N1 | 0 | > 5000 | 2.6 | > 2000 | – | – | 2.3 | 0.5 | 0.7 | – | – | – |
| N#Cc1ccccc1C1CCN(CCCNC(=O)C2=CNC(=O)N[C@@H]2c2ccc(F)c(F)c2)CC1 | 0 | 160 | 0.13 | 290 | – | – | 1.5 | 0.5 | 0.717 | – | – | – |
| O=C1NC(C(F)(F)F)=C(C(=O)NCCCN2CCC(c3ccccn3)CC2)[C@@H](c2ccc(F)c(F)c2)N1 | – | > 5000 | 500 | > 2000 | – | – | – | – | – | – | – | – |
| CC1=C(C(=O)NCCCN2CCC(c3ccc(F)cc3)CC2)[C@@H](c2ccc(F)c(F)c2)N(C)C(=O)N1C | 17 | – | – | – | – | – | 9 | 1 | 2.3 | 200 | 20 | 0.18 |
| N#Cc1cc(F)ccc1C1CCN(CCCNC(=O)C2=C(C(F)(F)F)NC(=O)N[C@@H]2c2ccc(F)c(F)c2)CC1 | – | 270 | 4.2 | 200 | – | – | – | – | – | – | – | – |
| CC1=C(C(=O)NCCCN2CCC(C#N)(c3ccc(F)cc3)CC2)[C@@H](c2ccc(F)c(F)c2)NC(=O)N1C | < 6 | 2200 | 0.39 | 1100 | – | – | 21 | 1.5 | 0.75 | – | – | – |
| CN1C=C(C(=O)NCCCN2CCC(c3ccc(F)cc3C#N)CC2)[C@@H](c2ccc(F)c(F)c2)NC1=O | 0 | 69 | 0.068 | 7.9 | – | – | 5 | 4 | 0.8 | – | – | – |
| O=C1NC(C(F)(F)F)=C(C(=O)NCCCN2CCC(c3ccc(F)cc3)CC2)[C@@H](c2ccc(F)c(F)c2)N1 | – | 1200 | – | 270 | – | – | – | – | – | – | – | 19 |
| COCC1=C(C(=O)NCCCN2CCC(c3ccccc3C#N)CC2)[C@@H](c2ccc(F)c(F)c2)NC(=O)N1 | < 6 | 285 | 0.42 | 285 | – | – | 7 | 0.6 | 1.8 | – | – | – |
| N#Cc1cc(F)ccc1C1CCN(CCCNC(=O)C2=CNC(=O)N[C@@H]2c2ccc(F)c(F)c2)CC1 | 0 | 62 | 0.07 | 26 | – | – | 1.8 | 2 | 2.9 | – | – | – |
| CC1=C(C(=O)NCCCN2CCC(c3ccc(F)cc3)CC2)[C@H](c2ccc(F)c(F)c2)N(C)C(=O)N1C | – | – | – | – | – | – | – | – | – | 410 | 85 | 11 |
| N#CC1(c2ccc(F)cc2)CCN(CCCNC(=O)C2=CNC(=O)N[C@@H]2c2ccc(F)c(F)c2)CC1 | 0 | 810 | 0.17 | 140 | – | – | 7 | 0.75 | 2.33 | – | – | – |
| CC1=C(C(=O)NCCCN2CCC(c3ccc(F)cc3)CC2)[C@@H](c2ccc(F)c(F)c2)N(C)C(=O)N1 | – | 120 | 0.14 | 4.8 | – | – | – | – | – | – | – | – |
| N#Cc1ccccc1C1CCN(CCCNC(=O)C2=C(C(F)(F)F)NC(=O)N[C@@H]2c2ccc(F)c(F)c2)CC1 | – | 220 | 20 | 700 | – | – | – | – | – | – | – | – |
| COCC1=C(C(=O)NCCCN2CCC(c3ccc(F)cc3C#N)CC2)[C@@H](c2ccc(F)c(F)c2)NC(=O)N1 | < 6 | 260 | 0.14 | 35 | – | – | 2.8 | 1.5 | 2.92 | – | – | – |
| CC(=O)N1C(=O)N(C)C(C)=C(C(=O)NCCCN2CCC(c3ccc(F)cc3)CC2)[C@H]1c1ccc(F)c(F)c1 | – | 230 | 2.2 | 33 | – | – | – | – | – | – | – | – |
| CN1C=C(C(=O)NCCCN2CCC(C#N)(c3ccc(F)cc3C#N)CC2)[C@@H](c2ccc(F)c(F)c2)NC1=O | 0 | 630 | 0.18 | 440 | – | – | 4 | 3.5 | < 1 | – | – | – |
| COC(=O)N1C(=O)N(C)C(C)=C(C(=O)NCCCN2CCC(c3ccc(F)cc3)CC2)[C@H]1c1ccc(F)c(F)c1 | – | 170 | 0.75 | 25 | – | – | – | – | – | – | – | – |
